Laboratory results taken from ChEMBL document CHEMBL3112450, “Synthesis and in vitro antitumor evaluation of primary amine substituted quinazoline linked benzimidazole” (Bioorg Med Chem Lett, 2014).

What was measured:
MDA-MB-468 = experiment: Cytotoxicity against human MDA-MB-468 cells assessed as growth inhibition at 10 uM after 48 hrs by SRB assay; type: functional; settings: MDA-MB-468, 48 h, read-out: GI
MDA-MB-231 = experiment: Cytotoxicity against human MDA-MB-231 cells assessed as growth inhibition at 10 uM after 48 hrs by SRB assay; type: functional; settings: MDA-MB-231, 48 h, read-out: GI
PC-3 = experiment: Cytotoxicity against human PC3 cells assessed as growth inhibition at 10 uM after 48 hrs by SRB assay; type: functional; settings: PC-3, 48 h, read-out: GI
[1] = Cytotoxicity against human UO31 cells assessed as growth inhibition at 10 uM after 48 hrs by SRB assay; type: functional; settings: UO-31, 48 h, read-out: GI
[2] = Cytotoxicity against human OVCAR4 cells assessed as growth inhibition at 10 uM after 48 hrs by SRB assay; type: functional; settings: OVCAR-4, 48 h, read-out: GI
SK-MEL-5 = experiment: Cytotoxicity against human SK-MEL-5 cells assessed as growth inhibition at 10 uM after 48 hrs by SRB assay; type: functional; settings: SK-MEL-5, 48 h, read-out: GI
KM12 = experiment: Cytotoxicity against human KM12 cells assessed as growth inhibition at 10 uM after 48 hrs by SRB assay; type: functional; settings: KM12, 48 h, read-out: GI
HT-29 = experiment: Cytotoxicity against human HT-29 cells assessed as growth inhibition at 10 uM after 48 hrs by SRB assay; type: functional; settings: HT-29, 48 h, read-out: GI
HCT-116 = experiment: Cytotoxicity against human HCT116 cells assessed as growth inhibition at 10 uM after 48 hrs by SRB assay; type: functional; settings: HCT-116, 48 h, read-out: GI
COLO 205 = experiment: Cytotoxicity against human COLO205 cells assessed as growth inhibition at 10 uM after 48 hrs by SRB assay; type: functional; settings: COLO 205, 48 h, read-out: GI
SR = experiment: Cytotoxicity against human SR cells assessed as growth inhibition at 10 uM after 48 hrs by SRB assay; type: functional; settings: read-out: GI
MOLT-4 = experiment: Cytotoxicity against human MOLT4 cells assessed as growth inhibition at 10 uM after 48 hrs by SRB assay; type: functional; settings: MOLT-4, 48 h, read-out: GI
K562 = experiment: Cytotoxicity against human K562 cells assessed as growth inhibition at 10 uM after 48 hrs by SRB assay; type: functional; settings: K562, 48 h, read-out: GI
[3] = Cytotoxicity against human UACC257 cells assessed as cell growth at 10^-7 M after 48 hrs by SRB assay; type: functional; settings: UACC-257, 48 h, read-out: Activity
A549 [4] = experiment: Cytotoxicity against human A549 cells after 48 hrs by SRB assay; type: functional; settings: A549, 48 h
A549 [5] = experiment: Cytotoxicity against human A549 cells assessed as cell growth at 10^-7 M after 48 hrs by SRB assay; type: functional; settings: A549, 48 h, read-out: Activity
[6] = Cytotoxicity against human UACC257 cells assessed as cell growth at 10^-4 M after 48 hrs by SRB assay; type: functional; settings: UACC-257, 48 h, read-out: Activity
[7] = Cytotoxicity against human UACC257 cells assessed as cell growth at 10^-8 M after 48 hrs by SRB assay; type: functional; settings: UACC-257, 48 h, read-out: Activity
A549 [8] = experiment: Cytotoxicity against human A549 cells assessed as cell growth at 10^-8 M after 48 hrs by SRB assay; type: functional; settings: A549, 48 h, read-out: Activity
[9] = Cytotoxicity against human NCI-ADR-RES cells assessed as growth inhibition at 10 uM after 48 hrs by SRB assay; type: functional; settings: read-out: GI
[10] = Cytotoxicity against human UACC257 cells after 48 hrs by SRB assay; type: functional; settings: UACC-257, 48 h
NCI-H23 = experiment: Cytotoxicity against human NCI-H23 cells assessed as growth inhibition at 10 uM after 48 hrs by SRB assay; type: functional; settings: NCI-H23, 48 h, read-out: GI
[11] = Cytotoxicity against human UACC257 cells assessed as cell growth at 10^-6 M after 48 hrs by SRB assay; type: functional; settings: UACC-257, 48 h, read-out: Activity
A549 [12] = experiment: Cytotoxicity against human A549 cells assessed as cell growth at 10^-6 M after 48 hrs by SRB assay; type: functional; settings: A549, 48 h, read-out: Activity
SNB-75 [13] = experiment: Cytotoxicity against human SNB75 cells after 48 hrs by SRB assay; type: functional, cell-based; settings: SNB-75, 48 h
SNB-75 [14] = experiment: Cytotoxicity against human SNB75 cells assessed as cell growth at 10^-4 M after 48 hrs by SRB assay; type: functional; settings: SNB-75, 48 h, read-out: Activity
SNB-75 [15] = experiment: Cytotoxicity against human SNB75 cells assessed as cell growth at 10^-6 M after 48 hrs by SRB assay; type: functional; settings: SNB-75, 48 h, read-out: Activity
SNB-75 [16] = experiment: Cytotoxicity against human SNB75 cells assessed as cell growth at 10^-7 M after 48 hrs by SRB assay; type: functional; settings: SNB-75, 48 h, read-out: Activity
SNB-75 [17] = experiment: Cytotoxicity against human SNB75 cells assessed as cell growth at 10^-8 M after 48 hrs by SRB assay; type: functional; settings: SNB-75, 48 h, read-out: Activity

**Q.** Which inhibition of growth at 10 µM (MDA-MB-468) does the source give for C=CCn1c(C)nc2cc(Nc3nc(NCCO)nc4ccccc34)ccc21 here?
**A.** 40%

**Q.** What about the inhibition of growth at 10 µM (MDA-MB-231) of the same compound?
**A.** 30%

**Q.** And the inhibition of growth at 10 µM (PC-3)?
**A.** 30%

**Q.** What about the inhibition of growth at 10 µM [1] of the same compound?
**A.** 30%

**Q.** What about the inhibition of growth at 10 µM [2] of the same compound?
**A.** 30%

**Q.** And the inhibition of growth at 10 µM (SK-MEL-5)?
**A.** 30%

**Q.** What about the inhibition of growth at 10 µM (KM12) of the same compound?
**A.** 30%

**Q.** What about the inhibition of growth at 10 µM (HT-29) of the same compound?
**A.** 30%

**Q.** And the inhibition of growth at 10 µM (HCT-116)?
**A.** 30%

**Q.** And the inhibition of growth at 10 µM (COLO 205)?
**A.** 50%

**Q.** What about the inhibition of growth at 10 µM (SR) of the same compound?
**A.** 30%

**Q.** What about the inhibition of growth at 10 µM (MOLT-4) of the same compound?
**A.** 40%

**Q.** What about the inhibition of growth at 10 µM (K562) of the same compound?
**A.** 30%

**Q.** Which growth at 0.1 µM [3] does the source give for C=CCn1c(C)nc2ccc(Nc3nc(Nc4ccc5nc(C)n(CC=C)c5c4)c4ccccc4n3)cc21 here?
**A.** 92%

**Q.** And the GI50 (A549 [4])?
**A.** 1720 nM

**Q.** What about the TGI (A549 [4]) of the same compound?
**A.** 3220 nM

**Q.** What about the growth at 0.1 µM (A549 [5]) of the same compound?
**A.** 101%

**Q.** What about the growth at 100 µM [6] of the same compound?
**A.** -49%

**Q.** What about the growth at 0.01 µM [7] of the same compound?
**A.** 90%

**Q.** And the growth at 0.01 µM (A549 [8])?
**A.** 99%

**Q.** What about the inhibition of growth at 10 µM [9] of the same compound?
**A.** 40%

**Q.** And the GI50 [10]?
**A.** 1570 nM

**Q.** And the TGI [10]?
**A.** 3030 nM

**Q.** And the inhibition of growth at 10 µM (NCI-H23)?
**A.** 50%

**Q.** And the growth at 1 µM [11]?
**A.** 84%

**Q.** And the growth at 1 µM (A549 [12])?
**A.** 93%

**Q.** With C=CCn1c(C)nc2cc(Nc3nc(Nc4ccc5nc(C)n(CC=C)c5c4)c4ccccc4n3)ccc21 as the compound, how does the GI50 (SNB-75 [13]) read?
**A.** 375 nM

**Q.** And the LC50 (concentration killing 50% of cells) (SNB-75 [13])?
**A.** 5310 nM

**Q.** What about the TGI (SNB-75 [13]) of the same compound?
**A.** 1560 nM

**Q.** And the growth at 100 µM (SNB-75 [14])?
**A.** -61%

**Q.** And the growth at 1 µM (SNB-75 [15])?
**A.** 18%

**Q.** And the growth at 0.1 µM (SNB-75 [16])?
**A.** 93%

**Q.** And the growth at 0.01 µM (SNB-75 [17])?
**A.** 84%
